What follows are molecules tested on fleas (Ctenocephalides felis) (assay: In vitro evaluation of ingestion activity against fleas). Conditions: flea ingestion test, compound in organic bovine blood (0.5% DMSO), adult fleas, percent mortality between 2 h and 48 h post infestation, read-out: EC50 (the source's name).
Procedure: In Vitro Evaluation of Ingestion Activity Against Fleas (Ctenocephalides felis)
For flea ingestion tests, serial dilutions of the compound stock were performed using DMSO to achieve the desired range for EC50 and EC90 determination. An aliquot of each compound dilution was added to organic bovine blood with a final DMSO concentration of 0.5% and placed in an artificial feeding container. Fipronil is included to serve as a positive control. Ten newly emerged unfed adult fleas, 0-7 days old Ctenocephalides felis, from a laboratory colony, were aspirated into each vial or cage. The cages for flea ingestion assays were held in a temperature-controlled artificial feeding apparatus to allow continual access to organic bovine blood containing the desired concentration of compound. Fresh aliquots of compound-spiked bovine blood were provided daily for the duration of the study. Fleas were evaluated for percent mortality at various time points between 2 h and 48 h post infestation. Fleas showing normal movement and/or jumping ability were considered viable and those showing no movement after tapping the vials were scored as dead.
CCN1C[C@@H](NC(=O)c2ccc(C3=NOC(c4cc(C(F)(F)F)cc(Cl)c4F)(C(F)(F)F)C3)cc2C)CC1=O (single isomer, unassigned) [Example 3.86, 4-[(5R or S)-5-[3-chloro-2-fluoro-5-(trifluoromethyl)phenyl]-5-(trifluoromethyl)-4H-isoxazol-3-yl]-N-[(3S)-1-ethyl-5-oxo-pyrrolidin-3-yl]-2-methyl-benzamide] gave an LC50 of under 1 µg/mL. Cc1cc(C2=NOC(c3cc(C(F)(F)F)cc(Cl)c3F)(C(F)(F)F)C2)ccc1C(=O)NC1CCN(C2CC2)C1=O (racemic) [Example 3.15, 2-methyl-4-[(5RS)-5-[3-chloro-2-fluoro-5-(trifluoromethyl)phenyl]-5-(trifluoromethyl)-4H-isoxazol-3-yl]-N-[(3RS)-1-cyclopropyl-2-oxo-pyrrolidin-3-yl]benzamide] was tested, and the LC50 was under 3 µg/mL. With Cc1cc(C2=NO[C@](c3cc(C(F)(F)F)cc(Cl)c3F)(C(F)(F)F)C2)ccc1C(=O)N[C@H]1C[C@@H](C(F)(F)F)C1 (single isomer, unassigned) [Example 3.74, 2-methyl-4-[(5R or S)-5-[3-chloro-2-fluoro-5-(trifluoromethyl)phenyl]-5-(trifluoromethyl)-4H-isoxazol-3-yl]-N-[cis-3-(trifluoromethyl)cyclobutyl] benzamide] the LC50 was under 1 µg/mL. Work on Cc1cc(C2=NOC(c3cc(C(F)(F)F)cc(Cl)c3F)(C(F)(F)F)C2)ccc1C(=O)NCc1nc(C#N)cs1 (racemic) [Example 3.23, N-[(4-cyanothiazol-2-yl)methyl]-2-methyl-4-[(5RS)-5-[3-chloro-2-fluoro-5-(trifluoromethyl)phenyl]-5-(trifluoromethyl)-4H-isoxazol-3-yl]benzamide] yielded an LC50 of under 1 µg/mL. For Cc1cc(C2=NOC(c3cc(C(F)(F)F)cc(Cl)c3F)(C(F)(F)F)C2)ccc1C(=O)NN1CCNC1=O (racemic) [Example 3.25, 2-methyl-N-(2-oxoimidazolidin-1-yl)-4-[(5RS)-5-[3-chloro-2-fluoro-5-(trifluoromethyl)phenyl]-5-(trifluoromethyl)-4H-isoxazol-3-yl]benzamide], the LC50 was under 3 µg/mL. Molecule Cc1cc(C2=NO[C@@](c3cc(C(F)(F)F)cc(Cl)c3F)(C(F)(F)F)C2)ccc1C(=O)N[C@@H]1CC[C@H](C#N)C1 (single isomer, unassigned) [Example 3.90, 4-[(5S or R)-5-[3-chloro-2-fluoro-5-(trifluoromethyl)phenyl]-5-(trifluoromethyl)-4H-isoxazol-3-yl]-N-[cis-3-cyanocyclopentyl]-2-methyl-benzamide] has an LC50 of under 1 µg/mL. Molecule Cc1cc(C2=NOC(c3cc(C(F)(F)F)cc(Cl)c3F)(C(F)(F)F)C2)ccc1C(=O)NC1CC2(COC2)C1 (single isomer, unassigned) [Example 3.62, 2-methyl-N-(2-oxaspiro[3.3]heptan-6-yl)-4-[(5R or S)-5-[3-chloro-2-fluoro-5-(trifluoromethyl)phenyl]-5-(trifluoromethyl)-4H-isoxazol-3-yl]benzamide] has an LC50 of under 1 µg/mL. Molecule Cc1cc(C2=NOC(c3cc(C(F)(F)F)cc(Cl)c3F)(C(F)(F)F)C2)ccc1C(=O)NCC1(C#N)CC1 (single isomer, unassigned) [Example 3.77, N-[(1-cyanocyclopropyl)methyl]-2-methyl-4-[(5R or S)-5-[3-chloro-2-fluoro-5-(trifluoromethyl)phenyl]-5-(trifluoromethyl)-4H-isoxazol-3-yl]benzamide] has an LC50 of under 1 µg/mL. Molecule Cc1cc(C2=NOC(c3cc(C(F)(F)F)cc(Cl)c3F)(C(F)(F)F)C2)ccc1C(=O)NC1CN(S(=O)(=O)C(F)(F)F)C1 (single isomer, unassigned) [Example 3.61, 2-methyl-4-[(5R or S)-5-[3-chloro-2-fluoro-5-(trifluoromethyl)phenyl]-5-(trifluoromethyl)-4H-isoxazol-3-yl]-N-[1-(trifluoromethylsulfonyl)azetidin-3-yl]benzamide] has an LC50 of under 3 µg/mL. With Cc1cc(C2=NO[C@](c3cc(C(F)(F)F)cc(Cl)c3F)(C(F)(F)F)C2)ccc1C(=O)N[C@H]1C[C@H](C(F)(F)F)C1 (single isomer, unassigned) [Example 3.65, 2-methyl-4-[(5R or S)-5-[3-chloro-2-fluoro-5-(trifluoromethyl)phenyl]-5-(trifluoromethyl)-4H-isoxazol-3-yl]-N-[trans-3-(trifluoromethyl)cyclobutyl] benzamide] the LC50 was under 1 µg/mL. Work on Cc1cc(C2=NOC(c3cc(C(F)(F)F)cc(Cl)c3F)(C(F)(F)F)C2)ccc1C(=O)NC1CS(=O)(=O)C1 (single isomer, unassigned) [Example 3.52, 4-[(5R or S)-5-[3-chloro-2-fluoro-5-(trifluoromethyl)phenyl]-5-(trifluoromethyl)-4H-isoxazol-3-yl]-N-(1,1-dioxothietan-3-yl)-2-methyl-benzamide] yielded an LC50 of under 1 µg/mL. For Cc1cc(C2=NOC(c3cc(C(F)(F)F)cc(Cl)c3F)(C(F)(F)F)C2)ccc1C(=O)N[C@H]1CNC(=O)C1 (single isomer, unassigned) [Example 3.85, 4-[(5R or S)-5-[3-chloro-2-fluoro-5-(trifluoromethyl)phenyl]-5-(trifluoromethyl)-4H-isoxazol-3-yl]-2-methyl-N-[(3R)-5-oxopyrrolidin-3-yl]benzamide], the LC50 was under 1 µg/mL. Cc1cc(C2=NOC(c3cc(C(F)(F)F)cc(Cl)c3F)(C(F)(F)F)C2)ccc1C(=O)N[C@@H]1CCN(CC#N)C1 (single isomer, unassigned) [Example 3.76, 4-[(5S or R)-5-[3-chloro-2-fluoro-5-(trifluoromethyl)phenyl]-5-(trifluoromethyl)-4H-isoxazol-3-yl]-N-[(3R)-1-(cyanomethyl)pyrrolidin-3-yl]-2-methyl-benzamide] gave an LC50 of under 1 µg/mL. In the case of Cc1cc(C2=NOC(c3cc(C(F)(F)F)cc(Cl)c3F)(C(F)(F)F)C2)ccc1C(=O)NC1CN(S(=O)(=O)N(C)C)C1 (single isomer, unassigned) [Example 3.66, N-[1-(dimethylsulfamoyl)azetidin-3-yl]-2-methyl-4-[(5R or S)-5-[3-chloro-2-fluoro-5-(trifluoromethyl)phenyl]-5-(trifluoromethyl)-4H-isoxazol-3-yl]benzamide], the LC50 is reported as under 1 µg/mL. Work on Cc1cc(C2=NOC(c3cc(C(F)(F)F)cc(Cl)c3F)(C(F)(F)F)C2)ccc1C(=O)NC1C[S+]([O-])C1 (single isomer, unassigned) [Example 3.55] yielded an LC50 of under 1 µg/mL. Work on Cc1cc(C2=NOC(c3cc(C(F)(F)F)cc(Cl)c3F)(C(F)(F)F)C2)ccc1C(=O)NCC(=O)NCC1CC1 (racemic) [Example 3.8, N-[2-(cyclopropylmethylamino)-2-oxo-ethyl]-2-methyl-4-[(5RS)-5-[3-chloro-2-fluoro-5-(trifluoromethyl)phenyl]-5-(trifluoromethyl)-4H-isoxazol-3-yl]benzamide] yielded an LC50 of under 1 µg/mL. Cc1cc(C2=NOC(c3cc(C(F)(F)F)cc(Cl)c3F)(C(F)(F)F)C2)ccc1C(=O)N[C@@H]1CNC1=O (single isomer, unassigned) [Example 3.53, 4-[(5R or S)-5-[3-chloro-2-fluoro-5-(trifluoromethyl)phenyl]-5-(trifluoromethyl)-4H-isoxazol-3-yl]-2-methyl-N-[(3R)-2-oxoazetidin-3-yl]benzamide] showed an LC50 of under 1 µg/mL. With Cc1cc(C2=NOC(c3cc(C(F)(F)F)cc(Cl)c3F)(C(F)(F)F)C2)ccc1C(=O)NC1CSC1 (single isomer, unassigned) [Example 3.51, 2-methyl-4-[(5R or S)-5-[3-chloro-2-fluoro-5-(trifluoromethyl)phenyl]-5-(trifluoromethyl)-4H-isoxazol-3-yl]-N-(thietan-3-yl)benzamide] the LC50 was under 1 µg/mL. Cc1cc(C2=NOC(c3cc(C(F)(F)F)cc(Cl)c3F)(C(F)(F)F)C2)ccc1C(=O)N[C@H]1CN(CC(F)(F)F)C1=O (single isomer, unassigned) [Example 3.72, 4-[(5R or S)-5-[3-chloro-2-fluoro-5-(trifluoromethyl)phenyl]-5-(trifluoromethyl)-4H-isoxazol-3-yl]-2-methyl-N-[(3S)-2-oxo-1-(2,2,2-trifluoroethyl)azetidin-3-yl]benzamide] gave an LC50 of under 3 µg/mL. In the case of Cc1cc(C2=NOC(c3cc(C(F)(F)F)cc(Cl)c3F)(C(F)(F)F)C2)ccc1C(=O)N[C@@H]1CCN(CC(F)(F)F)C1 (single isomer, unassigned) [Example 3.80, 4-[(5S or R)-5-[3-chloro-2-fluoro-5-(trifluoromethyl)phenyl]-5-(trifluoromethyl)-4H-isoxazol-3-yl]-2-methyl-N-[(3R)-1-(2,2,2-trifluoroethyl)pyrrolidin-3-yl]benzamide], the LC50 is reported as under 1 µg/mL. Work on Cc1cc(C2=NOC(c3cc(C(F)(F)F)cc(Cl)c3F)(C(F)(F)F)C2)ccc1C(=O)NC1(C)CSC1 (single isomer, unassigned) [Example 3.93, 2-methyl-N-(3-methylthietan-3-yl)-4-[(5R or S)-5-[3-chloro-2-fluoro-5-(trifluoromethyl)phenyl]-5-(trifluoromethyl)-4H-isoxazol-3-yl]benzamide] yielded an LC50 of under 1 µg/mL. With Cc1cc(C2=NOC(c3cc(C(F)(F)F)cc(Cl)c3F)(C(F)(F)F)C2)ccc1C(=O)N[C@H]1CC[C@H](C#N)CC1 (single isomer, unassigned) [Example 3.92, N-(trans-4-cyanocyclohexyl)-2-methyl-4-[(5R or S)-5-[3-chloro-2-fluoro-5-(trifluoromethyl)phenyl]-5-(trifluoromethyl)-4H-isoxazol-3-yl]benzamide] the LC50 was under 3 µg/mL.
